{"source": "patent US6589747B2", "about": "“Method for identifying compounds that modulate the interaction of amyloid beta or its aggregates with a voltage gated sodium channel” (priority 1999, dated 2003)", "key": {"[1]": {"system": "fast inward sodium channel (TTX-sensitive) of isolated rat hippocampal neurons", "assay": "Voltage-clamp recording of fast inward sodium current (INa)", "type": "cell-based"}, "[2]": {"system": "fast inward sodium channels (TTX-sensitive) of rat hippocampal neurons", "assay": "Aggregation time course versus impact on inward sodium current and other neuronal parameters", "type": "cell-based"}, "[3]": {"system": "isolated adult rat cortical and hippocampal neurons", "assay": "Current-clamp recording of resting membrane potential and action potentials of single neurons (suction pipette)", "type": "cell-based", "from_the_text": "(§1) For all studies as described herein, single neurons freshly dissociated from adult rats (Chad et al, In, Cellular Neurobiology, Ed. J. Chad and H. Wheal, Oxford University Press (1991)) were examined using the suction pipette method (Lee et al., J. Neurosc. Methods, 2; 51-78 (1980)) under current- or voltage-clamp, with use of an Axopatch 200 Amplifier (Axon Instruments, Foster City, Calif.). Amyloid β1-40 was obtained from Polypeptide Laboratories, Torrance, Calif., or from Bachem Biochemica, Heidelberg, Germany.\nShaken aggregation assays (i.e., as in Examples 1-4) were performed as described previously (e.g., Findeis et al., Biochemistry, 38, 6791-6800 (1999)). This aggregation performed prior to use of the aggregated amyloid for contacting cells was done in the same media as the cells were contained, i.e., Hank's Balanced Salt Solution. Aggregation of amyloid for kinetic studies (i.e., as in Example 5), was done in a buffer composed of 10 mM phosphate, 100 mM NaCl, pH 7.4. […] At given times, the turbidities of the reaction mixture were read by measuring light scattering at 405 nm in a Molecular Devices (Menlo Park, Calif.) Vmax Microplate Reader. […]\nIn current-clamp, the resting membrane potential and action potentials of single neurons were continuously monitored for at least 10-20 minutes until the neuronal activity became stable. […]"}, "[4]": {"system": "calcium ion channel of isolated hippocampal neurons", "assay": "Voltage-clamp recording of neuronal inward calcium current", "type": "cell-based, rat", "conditions": "50 μM amyloid β 1-40, about 70 minutes shake-induced aggregation", "from_the_text": "as §1\nIn this experiment, the effect of amyloid β 1-40 on the calcium ion channel was studied using the methods described in Experiment 2 for the sodium channel."}, "[5]": {"system": "potassium ion channel of isolated neurons", "assay": "Voltage-clamp recording of potassium currents", "type": "cell-based, rat", "from_the_text": "as §1\nIn this experiment, the effect of amyloid β 1-40 on the potassium ion channel was studied using the methods described in Experiment 2 for the sodium channel.\nIn voltage-clamp, within the first 2-5 minutes, in some cells the peptide induced an outward holding current measuring about 10-50 pA, but this small current was enough to hyperpolarize the resting membrane potential from −50 mV to −90 mV. In other cells, the peptide instead caused a gradual depolarization to about −40 mV due to a slight inhibition of the outward holding current. In all cells, amyloid β 1-40 blocked the delayed outward potassium current by about 30-40% at all step potentials."}}}
{"compound": "NC1=N[C@H](O)[C@H]2[C@H]3O[C@]4(O)O[C@@H]([C@@H](O)[C@@]2(N1)[C@@H]4O)[C@]3(O)CO", "note": "[tetrodotoxin (TTX), tetrodotoxin]", "values": [{"measurement": "sensitivity of fast inward sodium current to blocker", "setting": "[1]", "value": "sensitive"}]}
{"compound": "low molecular weight peptide aggregates of amyloid β 1-40 monomer: Low molecular weight aggregates (e.g. tetramer) of amyloid β 1-40", "values": [{"measurement": "relative potency for inhibiting the fast inward sodium channels", "setting": "[2]; compared with monomers or polymers", "value": "higher potency"}]}
{"compound": "Monomers of amyloid β 1-40: Non-aggregated monomeric form of amyloid β 1-40", "values": [{"measurement": "impact on the parameters assessed (resting potential, action potential, sodium, calcium, potassium channels)", "setting": "[2]; monomeric form, before aggregation", "value": "did not show significant impact"}]}
{"compound": "amyloid β 1-40", "values": [{"measurement": "effect on action potentials", "setting": "[3]; 11.5 μM amyloid β 1-40 added to cortical and hippocampal neurons", "value": "abrogation of action potentials"}, {"measurement": "time of peptide exposure until action potentials disappeared altogether in most neurons", "setting": "[3]; 10-50 μM amyloid β 1-40 preaggregated for different times", "value": "20 to 30", "unit": "min"}, {"measurement": "reversibility of effect on fast inward sodium current on wash out", "setting": "[1]; 50 μM amyloid β 1-40, about 90 and 120 minutes shake-induced aggregation, hippocampal neuron", "value": "cannot wash out"}, {"measurement": "block of fast inward sodium current", "setting": "[1]; 10-50 μM amyloid β 1-40 aggregated for various times, in about 5-30 minutes, holding potential −50 to −80 mV", "value": "≤ 90", "unit": "%"}, {"measurement": "effect on neuronal inward calcium currents", "setting": "[4]", "value": "depress neuronal inward calcium currents"}, {"measurement": "block of delayed outward potassium current", "setting": "[5]; all cells, at all step potentials", "value": "30-40%"}, {"measurement": "resting membrane potential after hyperpolarization (from −50 mV)", "setting": "[5]; cells in which an outward holding current was induced", "value": "−90", "unit": "mV"}, {"measurement": "membrane potential after gradual depolarization", "setting": "[5]; other cells, slight inhibition of the outward holding current", "value": "about −40 mV"}, {"measurement": "induced outward holding current", "setting": "[5]; voltage-clamp, within the first 2-5 minutes, in some cells", "value": "10-50 pA"}, {"measurement": "time of shake-induced aggregation giving peak impact on sodium channel activity (% decrease in INa)", "setting": "[2]; 50 μM amyloid β 1-40", "value": "60 to 80", "unit": "min"}, {"measurement": "inhibition level of the fast inward sodium channels after saturation of peptide aggregation", "setting": "[2]; after reaching saturation of aggregation, mean values of four experiments", "value": "> 50", "unit": "%"}]}
